In series [1] the test system is Xenopus embryos. Nature of the series: Ivermectin-induced hyper-pigmentation with blockers of voltage sensitive pathways. The conditions noted are these: for effect on ivermectin-induced hyper-pigmentation: with 10 μM ivermectin, 0.1 mM cadmium chloride, 0.1 mM verapamil, 50 mM lindane, 20 mM fluoxetine. Type of series: in vivo. As for the experimental part: We next sought to examine how changes in membrane voltage are translated into downstream signaling. In order to determine the signaling molecules responding to ivermectin induced depolarization, we examined three known voltage sensitive pathways: calcium, serotonin, and gap junctions. We capitalized on the existence of drugs known to block each of these pathways to determine if any were downstream of ivermectin signaling.
Embryos were exposed to 10 μM ivermectin from stage 10 throughout development. […] The following methods were used in conducting the experiments detailed above.
(§1) Stocks of ivermectin (sigma) were kept at 10 mM concentration in DMSO. Embryo exposure occurred at a 1:1000 dilution (10 μM) in MMR for the stages indicated in each experiment. […] Stocks of strychnine were kept at 1 g in 6 ml of water; embryos were treated with 100 μl of stock in 10 ml of MMR. Drugs and media were replaced every 48 hours.

The subject of series [2] is Xenopus embryos. Nature of the series: Drug exposure of Xenopus embryos, hyper-pigmentation phenotype.
Text: Ivermectin is known to open vertebrate GlyCl channels, resulting in chloride flux through the membrane (Schonrock, B., and Bormann, J. (1993) Naunyn Schmiedebergs Arch Pharmacol 348, 628-632; Shan, Q., Haddrill, J. L., and Lynch, J. W. (2001) J Biol Chem 276, 12556-12564.).
Xenopus embryos were collected according to standard protocols (Sive, Grainger et al. 2000) in 0.1× Modified Marc's Ringers (MMR) pH 7.8+0.1% Gentamycin. Xenopus embryos were staged according to Nieuwkoop and Faber 1967.
as §1

The subject of series [3] is human epidermal melanocytes. Nature of the series: Human melanocyte culture in high potassium media, proliferation and dendrite analysis. Type of series: cell-based. An excerpt: After finding that Xenopus melanocytes responded to modulations in membrane potential, we examined human epidermal melanocytes to assess the impact of membrane depolarization on cell phenotype. For these studies, ivermectin could not be used to depolarize the membrane because the culture medium used to maintain the cells has a much higher chloride ion concentration then that observed intracellularly in these particular cells. Thus, membrane potential was modulated by raising the extracellular potassium concentration by addition of potassium gluconate to the media.
Following two days of culture in 50 mM potassium gluconate supplemented media, human melanocytes developed a highly […] morphology, with a number of cells showing five or more such projections (compare FIGS. 6a and b). […] To verify that melanocytes grown in high potassium medium were in fact depolarized we made use of membrane voltage imaging using CC2-DMPE and DiBAC4 dyes, which allow visualization of the membrane potential (FIG. 6, d and e).
Human melanocytes were obtained commercially and cultured in DermaLife M Melanocyte culture medium (Lifeline Cell Technology, Walkersville, Md.). Cells were maintained within standard 50 ml culture flasks (BD Bioscience, San Jose, Calif.), and were fed with 10 ml warm media every other day. Upon reaching confluence, melanocytes were passaged using a standard trypsonization protocol, and new colonies were seeded at approximately 5,000 cells per cm^2.
For dendrite analysis, cells were imaged on a Nikon AZ100M stereo microscope and the numbers of dendrites on all cells within the field of vision were counted. Cell culture in high potassium media was repeated three times, and the results averaged for statistical analysis.

The test system of the next series is human melanocytes. Nature of the series: Imaging membrane voltage using CC2-DMPE and DiBAC4(3). Type of series: cell-based. The following applies: high potassium media, CC2-DMPE and DiBAC4 dyes. As for the experimental part:
CC2-DMPE (N-(6-chloro-7-hydroxycoumarin-3-carbonyl)-dimyristoylphosphatidyl ethanolamine), a coumarin phospholipid, and DiBAC4(3) (bis-(1,3-dibutylbarbituric acid) trimethine oxonol) were purchased from Invitrogen. Stock CC2-DMPE solution was prepared according to manufacturer directions; briefly, a 5 mM stock (in DMSO) was prepared, aliquoted, and stored at −20° C. until immediately before use. DiBAC4(3) stock (1.9 mM in DMSO) was prepared and stored at room temperature. CC2-DMPE stock was dissolved 1:1000 directly into DMEM. DiBAC4(3) stock was dissolved 1:2 in DMSO, then spun at rcf 20,800 for 10 minutes to remove undissolved particles of dye. Supernate was then diluted 1:4000 in DMEM. 1 mL of CC2-DMPE is added to cells grown in 35 mm FluoroDish Sterile Culture Dishes. Cells are incubated for 30 minutes, then washed twice with plain DMEM. 1-2 mLs of DiBAC4(3) are then added to the dish. Cells are incubated at least 30 minutes before imaging begins; cells are imaged while in the DiBAC4(3) bath. A round coverslip is dropped into the dish, and any medium outside the well is removed. […]
An Olympus BX-61 equipped with a Hamamatsu ORCA AG CCD camera, and controlled by IPLabs, was used for imaging. […] No calibration was performed; nonetheless, pixel intensity within and among images can be compared for relative quantification. […]

Series [4] deals with Xenopus embryos. Kind of series: Ivermectin exposure in MMR with varying levels of chloride. Type of series: in vivo. The following applies: for % hyper-pigmented / Hyper-pigmented (number of embryos) / Normal pigmentation (number of embryos): 10 μM ivermectin from stage 10. As for the experimental part:
We next sought to determine whether the alteration of melanocyte behavior was due to GlyCl-dependent changes in transmembrane potential. The intracellular concentration of chloride in an embryo is approximately 60 mM while the extracellular concentration of Modified Marc's Ringers (MMR), the solution in which the embryos are maintained, is 10 mM. If ivermectin constitutively opens chloride channels, ivermectin treatment would be expected to cause an efflux of Cl^− ions, thus resulting in depolarization of the cell membrane. Conversely, if the concentration of external chloride were raised above intracellular levels, chloride ions would enter cells following treatment with ivermectin, thus maintaining a hyperpolarized membrane potential. To test this hypothesis, we raised the concentration of chloride in the extracellular MMR media to 30 mM, 60 mM, or 90 mM and examined the resulting phenotype following ivermectin exposure.
Embryos were exposed to the chloride activator ivermectin (10 μM) from stage 10 throughout development in MMR containing varying levels of chloride.
as §1

A further series deals with melanocytes. Nature of the series: Melanocyte counts in ivermectin-exposed Xenopus embryos. Type of series: in vivo. As for the experimental part: We examined whether there is a critical period of ivermectin exposure required for hyperpigmentation. […] One set of animals was exposed to 10 μM ivermectin from stages 10-24 (gastrulation through the completion of neurulation), while the second set were exposed from stages 28-46 (tailbud through tadpole). Early exposed embryos were washed 3× in 0.5×MMR post exposure and transferred to a new dish to remove all drug from the environment.
In order to evaluate the number of melanocytes between treatments, early vs. late exposed embryos were anesthetized in tricane, and then photographed. We then counted the number of melanocytes within the eye region (FIG. 2A, B), and compared each treatment to age-matched control siblings. […] In comparison, embryos exposed to ivermectin during gastrulation and neurogenesis, the time when a subset of neural crest cells become fated to differentiate along a melanocyte fate, show a 1.5 fold increase in melanocyte number compared to controls (FIG. 2C).
Melanocytes were counted by cellAnalyst software (AssaySoft, Inc) on digital photographs of anesthetized larvae. Adobe Illustrator (Adobe Systems Inc) was used to define the dorsal region between the eyes used for counting. Tail regions were defined using digital photographs, starting at the most posterior tip of the tail and counting all melanocytes within a 400 pixel square bounding box extending anteriorly.

Where [5] appears, read: ivermectin from gastrulation throughout development.
[6] abbreviates: older tadpoles (beyond stage 46) exposed to ivermectin.
[7] abbreviates: 10 μM ivermectin from stage 10 throughout development, second drug concurrently.

Entries after “also recorded” stand apart in the source; their conditions may differ. Some results are limits rather than exact numbers.

Take `[Cl][Cd][Cl]` [cadmium chloride]: the “effect on ivermectin-induced hyper-pigmentation” value in the series with Xenopus embryos [1] is listed as “did not result in any reduction; also recorded: did not inhibit hyper-pigmentation”.

For `CNCCC(Oc1ccc(C(F)(F)F)cc1)c1ccccc1` (stereo not shown) [fluoxetine], the “effect on ivermectin-induced hyper-pigmentation” value with Xenopus embryos [1] is given as “blocked ivermectin-induced hyper-pigmentation in all of the treated embryos; also recorded: completely inhibited”.

`NCC(=O)O` [glycine]: the hyper-pigmentation phenotype result in the series with Xenopus embryos [2] (3 mM glycine, exposure throughout development) is given as “induced the same hyperpigmented phenotype as ivermectin; also recorded: induces hyper-pigmentation at a similar level to ivermectin exposure”.

Regarding `Cl[C@H]1[C@H](Cl)[C@@H](Cl)[C@@H](Cl)[C@H](Cl)[C@H]1Cl` [lindane], the “effect on ivermectin-induced hyper-pigmentation” value was “did not result in any reduction” in the series on Xenopus embryos [1] and “did not inhibit hyper-pigmentation” in the series on Xenopus embryos [1] (listed as lindine).

Regarding `O=C([O-])[C@H](O)[C@@H](O)[C@H](O)[C@H](O)CO.[K+]` [potassium gluconate], the “effect on growth in potassium dose response screen” value in series [3] (40 mM potassium gluconate) is “non-inhibitory to growth”. The “cell proliferation, standard vs high potassium media” value in series [3] (50 mM potassium gluconate supplemented media) was “No measurable differences in cell proliferation”. Also, the “dendricity / number of projections of melanocytes” value in series [3] (50 mM potassium gluconate supplemented media, two days of culture) is recorded as “significant effect on the number of projections; also recorded: significant effect of potassium gluconate on dendricity”. Further, the “membrane potential of treated cells compared to controls” value in the series with human melanocytes is given as “depolarization”.

Turning to ivermectin, in the series on Xenopus embryos [4] (10 mM Cl−), the “% hyper-pigmented” value came out at 100%, the “Hyper-pigmented (number of embryos)” value stood at 25 and the “Normal pigmentation (number of embryos)” value worked out at 0. Moreover, in the series with Xenopus embryos [4] (30 mM Cl−), the “% hyper-pigmented” value amounted to 95.8%, the “Hyper-pigmented (number of embryos)” value is recorded as 23 and the “Normal pigmentation (number of embryos)” value turned out to be 1. For the same molecule, in the series on Xenopus embryos [4] (60 mM Cl−), the “% hyper-pigmented” value worked out at 21.7%, the “Hyper-pigmented (number of embryos)” value is 5 and the “Normal pigmentation (number of embryos)” value was 18. In addition, in the series with Xenopus embryos [4] (90 mM Cl−), the “% hyper-pigmented” value is 0%, the “Hyper-pigmented (number of embryos)” value is given as 0 and the “Normal pigmentation (number of embryos)” value is given as 32. The “ivermectin hyper-pigmentation phenotype in words” value in the series with Xenopus embryos [4] (extracellular chloride 10 mM) was “strong hyper-pigmentation”. Besides, the “ivermectin hyper-pigmentation phenotype in words” value in the series on Xenopus embryos [4] (extracellular chloride 30 mM) is “did not inhibit hyper-pigmentation; also recorded: strong hyper-pigmentation”. Also, in the series with Xenopus embryos [4] (extracellular chloride 60 mM), the “ivermectin hyper-pigmentation phenotype in words” value is listed as “suppressed; also recorded: partial inhibition”. Also, the “ivermectin hyper-pigmentation phenotype in words” value with Xenopus embryos [4] (extracellular chloride 90 mM) is “completely inhibited; also recorded: complete inhibition”. In the series on Xenopus embryos [2] (setting [5]), the “melanocyte morphology compared to wild type siblings” value is reported as “take on a dendritic morphology”, the “other disruptions of normal development” value is recorded as “not accompanied by any other observable disruptions of normal development” and the “treated embryos/larvae developing hyper-pigmentation” value is 98%. The “increase in melanocyte number in eye field relative to controls” value in the series on melanocytes (10 μM ivermectin, early exposure stages 10-24) is 1.5 fold. Moreover, in the series on melanocytes (10 μM ivermectin, late exposure stages 28-46, at stage 46), the “melanocyte number in eye field relative to controls” value was “do not show a significant increase; also recorded: no detectible difference”. The “increase in melanocyte counts in the tip of the tail” value in the series with melanocytes (ivermectin throughout development) worked out at 1.5 fold. In addition, in the series with melanocytes (setting [6]), the “generation of more melanocytes” value is on record as “do not appear to generate more melanocytes” and the “time to expansion of pigment cells” value was at most 24 h. Further, the “incidence of hyper-pigmentation in words” value in the series with Xenopus embryos [1] (10 μM ivermectin alone) was “strong incidence of hyper-pigmentation”. Besides, in the series with Xenopus embryos [1] (setting [7]), the “% hyper-pigmented” value turned out to be 95.3%, the “Hyper-pigmented tadpoles (number)” value is listed as 61 and the “WT tadpoles (number)” value stood at 3.

The values above are taken from patent US20120295346A1, “METHODS AND COMPOSITIONS FOR MODULATING MEMBRANE POTENTIAL TO INFLUENCE CELL BEHAVIOR” (Tufts University, priority 2009, published 2012).
